Laboratory results from ChEMBL document CHEMBL1201862, “PubChem BioAssay data set” (2004).
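Each compound was tested at five concentrations against cells in 96-well plates for 48 hours. GI50 marks 50% less growth.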 Calls of active or inactive are those of the source. Rule as the data show it: active = GI50 up to about 1.1 µM and inactive = higher.

How the values were obtained:
Test in all cases: NCI tumour cell line growth inhibition, 48 h
DU-145 = system: DU-145
EKVX = system: EKVX
HCC 2998 = system: HCC 2998
HCT-116 = system: HCT-116
HCT-15 = system: HCT-15
HT-29 = system: HT-29
M14 = system: M14
MDA-MB-435 = system: MDA-MB-435
MOLT-4 = system: MOLT-4
Malme-3M = system: Malme-3M
NCI-H226 = system: NCI-H226
NCI-H23 = system: NCI-H23
OVCAR-3 = system: OVCAR-3
RPMI-8226 = system: RPMI-8226
RXF 393 = system: RXF 393
SK-MEL-2 = system: SK-MEL-2
SW-620 = system: SW-620
U-251 = system: U-251
UACC-257 = system: UACC-257
MDA-N = system: MDA-N

Row | Structure (SMILES) | GI50 (DU-145) | GI50 (EKVX) | GI50 (HCC 2998) | GI50 (HCT-116) | GI50 (HCT-15) [µM] | GI50 (HT-29) | GI50 (M14) | GI50 (MDA-MB-435) | GI50 (MOLT-4) | GI50 (Malme-3M) | GI50 (NCI-H226) | GI50 (NCI-H23) | GI50 (OVCAR-3) | GI50 (RPMI-8226) | GI50 (RXF 393) | GI50 (SK-MEL-2) | GI50 (SW-620) | GI50 (U-251) | GI50 (UACC-257) | GI50 (MDA-N)
1 | OC1(c2ccccc2)C2CCN(CC2)C1CN1CCOCC1 (centres undefined) | > 100 µM (inactive) | > 100 µM (inactive) | > 100 µM (inactive) | > 100 µM (inactive) | > 100 | > 100 µM (inactive) | > 100 µM (inactive) | > 100 µM (inactive) | > 100 µM (inactive) | > 100 µM (inactive) | > 100 µM (inactive) | > 100 µM (inactive) | > 100 µM (inactive) | > 100 µM (inactive) | > 100 µM (inactive) | > 100 µM (inactive) | > 100 µM (inactive) | > 100 µM (inactive) | > 100 µM (inactive) | –
2 | O=C(O)CNC(=O)c1c2ccccc2nc2ccccc12 | > 100 µM (inactive) | > 100 µM (inactive) | > 100 µM (inactive) | > 100 µM (inactive) | > 100 | > 100 µM (inactive) | > 100 µM (inactive) | > 100 µM (inactive) | > 100 µM (inactive) | > 100 µM (inactive) | > 100 µM (inactive) | > 100 µM (inactive) | > 100 µM (inactive) | > 100 µM (inactive) | – | > 100 µM (inactive) | > 100 µM (inactive) | > 100 µM (inactive) | > 100 µM (inactive) | –
3 | CN(N=O)C(=O)Nc1c[nH]c(=O)[nH]c1=O | > 100 µM (inactive) | > 100 µM (inactive) | > 100 µM (inactive) | > 100 µM (inactive) | > 100 | > 100 µM (inactive) | > 100 µM (inactive) | > 100 µM (inactive) | > 100 µM (inactive) | > 100 µM (inactive) | > 100 µM (inactive) | > 100 µM (inactive) | > 100 µM (inactive) | – | – | > 100 µM (inactive) | > 100 µM (inactive) | > 100 µM (inactive) | > 100 µM (inactive) | > 100 µM (inactive)
4 | CC(C)(NC(=O)OCc1ccccc1)C(=O)OC(=O)C(C)(C)NC(=O)OCc1ccccc1 | > 10 µM (inactive) | > 100 µM (inactive) | – | > 100 µM (inactive) | > 100 | > 100 µM (inactive) | > 100 µM (inactive) | > 100 µM (inactive) | > 100 µM (inactive) | > 100 µM (inactive) | > 100 µM (inactive) | > 100 µM (inactive) | > 100 µM (inactive) | > 100 µM (inactive) | – | > 100 µM (inactive) | > 100 µM (inactive) | > 100 µM (inactive) | – | 23.6 µM (inactive)
5 | COc1ccc(C=O)c([N+](=O)[O-])c1 | – | 99.5 µM (inactive) | > 10 µM (inactive) | 4.09 µM (inactive) | 9.27 | 16.9 µM (inactive) | 38.1 µM (inactive) | – | 4.31 µM (inactive) | 21.5 µM (inactive) | 44 µM (inactive) | > 100 µM (inactive) | 27.9 µM (inactive) | 23.1 µM (inactive) | > 100 µM (inactive) | 35.2 µM (inactive) | 8.24 µM (inactive) | 13.2 µM (inactive) | 37.7 µM (inactive) | –
6 | Cc1cc(-c2c(F)cc3c4nn([C@H]5CC[C@@H](N(C)C)CC5)c(=O)c-4cn(C4CC4)c3c2F)cc(C)n1 | 0.416 µM (active) | 2.06 µM (inactive) | 0.29 µM (active) | 0.16 µM (active) | 1.74 | 0.245 µM (active) | 0.46 µM (active) | – | < 0.0316 µM (active) | 0.38 µM (active) | 0.101 µM (active) | 0.132 µM (active) | 0.805 µM (active) | 1.11 µM (active) | 0.43 µM (active) | 0.82 µM (active) | 0.195 µM (active) | 0.105 µM (active) | 1.25 µM (inactive) | 1.56 µM (inactive)
7 | CC(=O)NNc1nc(C)c(C(=O)NNC(=O)C(=O)Nc2ccc(C)cc2[N+](=O)[O-])s1 | – | > 100 µM (inactive) | > 100 µM (inactive) | > 100 µM (inactive) | > 100 | > 100 µM (inactive) | > 100 µM (inactive) | – | 98.4 µM (inactive) | > 100 µM (inactive) | > 100 µM (inactive) | > 100 µM (inactive) | 47.8 µM (inactive) | > 100 µM (inactive) | > 100 µM (inactive) | > 100 µM (inactive) | > 100 µM (inactive) | > 100 µM (inactive) | > 100 µM (inactive) | –
8 | CCCCC(C(=O)CCC(=O)Nc1ccc(Cl)c(Cl)c1)C(=O)C(C)C (centres undefined) | – | > 100 µM (inactive) | > 100 µM (inactive) | > 100 µM (inactive) | > 100 | > 100 µM (inactive) | 82.8 µM (inactive) | – | > 100 µM (inactive) | > 100 µM (inactive) | > 100 µM (inactive) | > 100 µM (inactive) | > 100 µM (inactive) | > 100 µM (inactive) | > 100 µM (inactive) | 95.5 µM (inactive) | > 100 µM (inactive) | > 100 µM (inactive) | > 100 µM (inactive) | –
9 | O=C1C(Br)=C(C2=CC(=P(c3ccccc3)(c3ccccc3)c3ccccc3)C=C2)C(=O)C(Br)=C1C1=CC(=P(c2ccccc2)(c2ccccc2)c2ccccc2)C=C1 | > 100 µM (inactive) | 19.9 µM (inactive) | – | 99.1 µM (inactive) | – | > 100 µM (inactive) | 12.6 µM (inactive) | – | > 100 µM (inactive) | 18.3 µM (inactive) | – | > 100 µM (inactive) | 40.2 µM (inactive) | > 100 µM (inactive) | > 100 µM (inactive) | > 100 µM (inactive) | 19.4 µM (inactive) | 16.9 µM (inactive) | 33.3 µM (inactive) | > 100 µM (inactive)
10 | CNc1ccc(Cl)cc1S(=O)(=O)c1ccccc1[N+](=O)[O-] | > 100 µM (inactive) | > 100 µM (inactive) | > 100 µM (inactive) | > 10 µM (inactive) | > 100 | > 100 µM (inactive) | > 100 µM (inactive) | – | > 100 µM (inactive) | > 100 µM (inactive) | > 100 µM (inactive) | > 100 µM (inactive) | > 100 µM (inactive) | > 100 µM (inactive) | > 100 µM (inactive) | > 100 µM (inactive) | > 100 µM (inactive) | > 100 µM (inactive) | – | > 100 µM (inactive)
11 | COc1cc(-c2cccs2)sc1-c1cccs1 | – | 6.55 µM (inactive) | 26.7 µM (inactive) | 28.6 µM (inactive) | 4.4 | 20.7 µM (inactive) | 35.3 µM (inactive) | – | 32.6 µM (inactive) | 39 µM (inactive) | 43.5 µM (inactive) | 15.7 µM (inactive) | 63.8 µM (inactive) | 52.4 µM (inactive) | 21.8 µM (inactive) | 31.5 µM (inactive) | 71.1 µM (inactive) | 43.6 µM (inactive) | 39.7 µM (inactive) | –
12 | CC(C)COC(=O)N1N=NC2C3OC(CC3=O)C21 (centres undefined) | – | > 100 µM (inactive) | > 100 µM (inactive) | > 100 µM (inactive) | > 100 | > 100 µM (inactive) | > 100 µM (inactive) | – | > 100 µM (inactive) | > 100 µM (inactive) | > 100 µM (inactive) | > 100 µM (inactive) | > 100 µM (inactive) | > 100 µM (inactive) | > 100 µM (inactive) | > 100 µM (inactive) | > 100 µM (inactive) | > 100 µM (inactive) | > 100 µM (inactive) | –
13 | O=C(c1ccncc1)C1C(=O)c2ccccc2C1C1(O)c2ccccc2CC1C(O)c1ccncc1 (centres undefined) | – | 33 µM (inactive) | 57.3 µM (inactive) | 28.2 µM (inactive) | 41.3 | 35.6 µM (inactive) | 25.8 µM (inactive) | 16.9 µM (inactive) | 15.1 µM (inactive) | 58.7 µM (inactive) | > 100 µM (inactive) | 48.6 µM (inactive) | – | 19 µM (inactive) | 39.6 µM (inactive) | 23.6 µM (inactive) | 71.8 µM (inactive) | 41 µM (inactive) | 52.7 µM (inactive) | 13.3 µM (inactive)
14 | COc1ccc(C2Oc3c(cc(O)c(OC)c3C)[C@@H]2C)cc1OC (some centres undefined) | – | > 100 µM (inactive) | > 100 µM (inactive) | > 100 µM (inactive) | > 10 | > 100 µM (inactive) | > 100 µM (inactive) | – | 76.2 µM (inactive) | > 100 µM (inactive) | > 100 µM (inactive) | > 100 µM (inactive) | > 100 µM (inactive) | 4.44 µM (inactive) | 27.7 µM (inactive) | > 100 µM (inactive) | 71 µM (inactive) | > 100 µM (inactive) | 45 µM (inactive) | –
15 | N#Cc1c(-c2ccccc2)c(/C=N/c2ccc(Cl)cc2)c(=O)n2c1[nH]c1ccccc12 | – | – | > 100 µM (inactive) | 0.424 µM (active) | > 100 | – | > 100 µM (inactive) | > 100 µM (inactive) | – | > 100 µM (inactive) | > 100 µM (inactive) | > 100 µM (inactive) | 80.9 µM (inactive) | 4.43 µM (inactive) | > 100 µM (inactive) | > 100 µM (inactive) | > 100 µM (inactive) | > 100 µM (inactive) | > 100 µM (inactive) | 20.4 µM (inactive)
16 | CN(C)CCn1c2c(c3ccccc31)CCc1ccccc1-2 | 16.1 µM (inactive) | 17.4 µM (inactive) | 0.569 µM (active) | 12 µM (inactive) | 10.7 | 8.99 µM (inactive) | 13.5 µM (inactive) | 17.4 µM (inactive) | 10.8 µM (inactive) | 16.1 µM (inactive) | 12.8 µM (inactive) | 17.4 µM (inactive) | 14.6 µM (inactive) | 6.49 µM (inactive) | – | 15.3 µM (inactive) | 18.8 µM (inactive) | 13.6 µM (inactive) | 14.6 µM (inactive) | –
